Measurements reported in patent publication US12377083B2 (WUHAN LL SCIENCE AND TECHNOLOGY DEVELOPMENT CO., LTD., priority 2019, dated 2025).
pIC50: −log10 of the molar value.

Key:
Assay type in all cases: cell-based
[1] = In vitro cytotoxicity assay in HepG2 cells, CCK-8 method; conditions: human
Experimental: In vitro cytotoxicity assay for the compounds disclosed herein was performed in HepG2 cells using the CCK-8 method. HepG2 cells (Beina Bio) in the logarithmic growth phase were collected, the concentration of cell suspension was adjusted, and then the cells were plated on a 96-well cell culture plate at 50,000 cells/well. The cells were then incubated overnight in a cell incubator (5% CO2, 37° C.), and after 80-90% cell confluence was achieved, test compounds or vehicle (DMSO) at various concentration gradients were added after medium change. The resulting mixture was incubated in the cell incubator (5% CO2, 37° C.) for 48 h. After the treatment, the medium in the plate was discarded. The plate was washed twice with PBS, added with CCK-8 working solution (Beyotime) at 100 μL per well, and then incubated at 37° C. for 1.5 h away from the light. Absorbance at OD450 nm was measured for each well on a microplate reader, and CC50 value of each compound was analyzed and calculated.

[2] = target: hLPAR1 (human lysophosphatidic acid receptor 1) (Homo sapiens, UniProt Q92633); assay: FLIPR assay of intracellular calcium increase induced by activation of hLPAR1 expressed in CHO-K1 cells; conditions: CHO-K1 cells expressing hLPAR1, agonist oleoyl-L-α-lysophosphatidic acid 1 μM; read-out: LPAR1 IC50
Sequence of hLPAR1 (human lysophosphatidic acid receptor 1) (Q92633 whole entry): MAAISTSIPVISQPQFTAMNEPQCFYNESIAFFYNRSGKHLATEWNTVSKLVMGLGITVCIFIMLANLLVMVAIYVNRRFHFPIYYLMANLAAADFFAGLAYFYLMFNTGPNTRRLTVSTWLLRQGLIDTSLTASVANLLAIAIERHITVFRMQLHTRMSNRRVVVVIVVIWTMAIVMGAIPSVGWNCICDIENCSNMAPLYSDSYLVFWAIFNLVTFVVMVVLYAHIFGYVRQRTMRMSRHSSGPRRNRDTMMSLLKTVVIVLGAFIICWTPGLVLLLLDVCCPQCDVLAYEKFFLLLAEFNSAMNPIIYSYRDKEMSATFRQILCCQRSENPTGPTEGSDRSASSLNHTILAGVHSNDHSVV
Experimental: The antagonist property of the compounds disclosed herein was determined using the FLIPR (fluorescence imaging plate reader) method, wherein the compounds are inhibitors for the intracellular calcium increase induced by activation of hLPAR1 (human lysophosphatidic acid receptor 1, accession No. NM_001401.4) expressed in CHO-K1 cells (Chinese hamster ovary cells K1, ATCC).
Cells at 250,000 cells/mL were seeded into a 96-well plate (25,000 cells/well) 18-24 h prior to the FLIPR experiment and then incubated overnight in a cell incubator. […] Each well was added with 75 μL of […] Fluo-4 AM fluorescent dye (Thermo, F14202) and then the cells were subjected to dye-loading incubation at 37° C. for 1.0 h. The 96-well plate was then washed once with buffer, added with a buffer containing a test compound or a vehicle at 50 μL per well and then incubated for 30 min at room temperature. […] An agonist (oleoyl-L-α-lysophosphatidic acid sodium salt (Sigma, L7260)) at a final concentration of 1 μM or a vehicle (ultrapure water) was then added at 50 μL/well, fluorescence values were measured for 2 min at 1-second intervals, and finally the output fluorescence counts were analyzed.

[3] = tested on: A2058 (human melanoma cells); assay: A2058 cell scratch (migration) assay with LPA; conditions: 10 μM LPA, scratch area at 24 h
Experimental: The activity of the compounds disclosed herein at the cell level in vitro is evaluated by A2058 (human melanoma cells, Beina Bio, BNCC341099) cell scratch assay. The inhibitory activity of the compounds against LPAR1 can be reflected by inhibition of cell scratch healing.
After the cell confluence reached 80%, the cell culture plate was taken out and the original medium was discarded. Serum-free medium was then added, and the cells were starved overnight in an incubator (37° C., 5% CO2). The cell culture plate was then taken out, and cell scratches were made along the diameter of the wells using a 200 μL pipette tip. The cell culture plate was then added with 500 μL of serum-free medium and then shaken gently to wash away the residual cells on the scratched surface, and this was repeated twice. The medium was discarded and 500 μL of 1% FBS medium containing the compound was then added, and the mixture was incubated at 37° C. for 30 min. […] Olympus CKX53 was used to observe the scratches, and MShot image analysis system was used to take pictures and measure the scratch area at 0 h. The plate was incubated in the incubator under the conditions of 37° C. and 5% CO2. 24 h later, the scratches were observed again with Olympus CKX53, and MShot image analysis system was used to take pictures and measure the scratch area at 24 h. Cell migration inhibition rate was calculated according to the following formula: […]

| SMILES | CC50 at 48 h [1] | pIC50 [2] | Cell migration inhibition rate (%) [3] |
| --- | --- | --- | --- |
| Cc1nc(-c2c(Cl)nn(C)c2COC(=O)N(C)C2CCCC2)ccc1O[C@H]1CCC[C@H](C(=O)O)C1 (racemic) [Compound 56, (+/−)-(1S,3S)-3-((6-(3-chloro-5-(((cyclopentyl(methyl)carbamoyl)oxy)methyl)-1-methyl-1H-pyrazol-4-yl)-2-methylpyridin-3-yl)oxy)cyclohexane-1-carboxylic Acid] | > 200 µM | > 7.30 | A (A: 50-70%) |
| Cc1nc(-c2c(C#N)nn(C)c2COC(=O)N(C)C2CCCC2)ccc1O[C@@H]1CCC[C@@H](C(=O)O)C1 (racemic) [Compound 58] | > 200 µM | > 7.30 | A (A: 50-70%) |
| COc1nc(-c2cnn(C)c2COC(=O)N(C)C2CCCC2)ccc1O[C@H]1CCC[C@H](C(=O)O)C1 (racemic) [Compound 59, (+/−)-(1S,3S)-3-((6-(5-(((cyclopentyl(methyl)carbamoyl)oxy)methyl)-1-methyl-1H-pyrazol-4-yl)-2-methoxypyridin-3-yl)oxy)cyclohexane-1-carboxylic Acid] | > 200 µM | > 7.30 | B (B: 30-50%) |
| CN(C(=O)OCc1c(-c2ccc(O[C@H]3CCC[C@H](C(=O)O)C3)c(Cl)n2)cnn1C)C1CCCC1 (racemic) [Compound 61, (+/−)-(1S,3S)-3-((2-chloro-6-(5-(((cyclopentyl(methyl)carbamoyl)oxy)methyl)-1-methyl-1H-pyrazol-4-yl)pyridin-3-yl)oxy)cyclohexane-1-carboxylic Acid] | > 200 µM | > 7.30 | A (A: 50-70%) |
| Cc1ccn(-c2ccc(O[C@H]3CCC[C@H](C(=O)O)C3)cc2)c1COC(=O)N(C)C1CCCC1 (racemic) [Compound 31] | > 200 µM | > 7.30 | B (B: 30-50%) |
| Cc1nc(-c2ncoc2COC(=O)N(C)C2CCCC2)ccc1O[C@H]1CCC[C@H](C(=O)O)C1 (racemic) [Compound 26] | > 200 µM | 5.00 to 6.52 | C (C: 0-30%) |
| Cc1nc(-c2c(F)nn(C)c2COC(=O)N(C)C2CCCC2)ccc1O[C@H]1CCC[C@H](C(=O)O)C1 [Compound 57] | > 200 µM | > 7.30 | A (A: 50-70%) |
| CN(C(=O)OCc1c(-c2ccc(O[C@H]3CCC[C@H](C(=O)O)C3)cc2)ncn1C)C1CCCC1 (racemic) [Compound 12, (+/−)-(1S,3S)-3-(4-(5-(((cyclopentyl(methyl)carbamoyl)oxy)methyl)-1-methyl-1H-imidazol-4-yl)phenoxy)cyclohexane-1-carboxylate] | > 200 µM | 5.00 to 6.52 | C (C: 0-30%) |
| Cc1nc(-c2cnnc(C)c2COC(=O)N(C)C2CCCC2)ccc1O[C@H]1CCC[C@H](C(=O)O)C1 (racemic) [Compound 52] | > 200 µM | > 7.30 | B (B: 30-50%) |
| Cc1n[nH]c(-c2ccc(O[C@H]3CCC[C@H](C(=O)O)C3)cc2)c1COC(=O)N(C)C1CCCC1 (racemic) [Compound 27] | > 200 µM | > 7.30 | B (B: 30-50%) |
| Cc1nc(-c2cnnc(COC(=O)N(C)C3CCCC3)c2)ccc1O[C@H]1CCC[C@H](C(=O)O)C1 (racemic) [Compound 47] | > 200 µM | > 7.30 | B (B: 30-50%) |
| Cc1cnn(-c2ccc(O[C@H]3CCC[C@H](C(=O)O)C3)cc2)c1COC(=O)N(C)C1CCCC1 (racemic) [Compound 30, (+/−)-(1S,3S)-3-(4-(5-(((cyclopentyl(methyl)carbamoyl)oxy)methyl)-4-methyl-1H-pyrazol-1-yl)phenoxy)cyclohexanoic Acid] | > 200 µM | > 7.30 | B (B: 30-50%) |
| Cc1nc(-c2csc(C)c2COC(=O)N(C)C2CCCC2)ccc1O[C@H]1CCC[C@H](C(=O)O)C1 (racemic) [Compound 43] | > 200 µM | > 7.30 | A (A: 50-70%) |
| Cc1nc(-c2[nH]nc(C)c2COC(=O)N(C)C2CCCC2)ccc1O[C@H]1CCC[C@H](C(=O)O)C1 (racemic) [Compound 53] | > 200 µM | > 7.30 | A (A: 50-70%) |
| Cc1nc(-c2coc(C)c2COC(=O)N(C)C2CCCC2)ccc1O[C@H]1CCC[C@H](C(=O)O)C1 (racemic) [Compound 42] | > 200 µM | > 7.30 | A (A: 50-70%) |
| Cc1nc(-c2noc(C)c2COC(=O)N(C)C2CCCC2)ccc1O[C@H]1CCC[C@H](C(=O)O)C1 (racemic) [Compound 38] | > 200 µM | > 7.30 | A (A: 50-70%) |
| Cc1nc(COC(=O)N(C)C2CCCC2)c(-c2ccc(O[C@H]3CCC[C@H](C(=O)O)C3)cc2)s1 (racemic) [Compound 10, (+/−)-(1S,3S)-3-(4-(4-(((cyclopentyl(methyl)carbamoyl)oxy)methyl)-2-methylthiazol-5-yl)phenoxy)cyclohexane-1-carboxylic Acid] | > 200 µM | 5.00 to 6.52 | C (C: 0-30%) |
| Cc1nc(-c2c[nH]c(C)c2COC(=O)N(C)C2CCCC2)ccc1O[C@H]1CCC[C@H](C(=O)O)C1 (racemic) [Compound 41] | > 200 µM | > 7.30 | B (B: 30-50%) |
| Cc1coc(-c2ccc(O[C@H]3CCC[C@H](C(=O)O)C3)c(C)n2)c1COC(=O)N(C)C1CCCC1 (racemic) [Compound 45] | > 200 µM | > 7.30 | A (A: 50-70%) |
| Cc1c[nH]c(-c2ccc(O[C@H]3CCC[C@H](C(=O)O)C3)c(C)n2)c1COC(=O)N(C)C1CCCC1 (racemic) [Compound 44] | > 200 µM | > 7.30 | B (B: 30-50%) |
| Cc1nc(-c2ncnc(C)c2COC(=O)N(C)C2CCCC2)ccc1O[C@H]1CCC[C@H](C(=O)O)C1 (racemic) [Compound 51] | > 200 µM | > 7.30 | A (A: 50-70%) |
| CN(Cc1ccccc1)C(=O)OCc1ocnc1-c1ccc(O[C@H]2CCC[C@H](C(=O)O)C2)cc1 (racemic) [Compound 1, (+/−)-(1S,3S)-3-(4-(5-(((benzyl(methyl)carbamoyl)oxy)methyl)oxazol-4-yl)phenoxy)cyclohexane-1-carboxylic Acid] | > 200 µM | 5.00 to 6.52 | C (C: 0-30%) |
| CN(C(=O)OCc1c(-c2ncc(O[C@H]3CCC[C@H](C(=O)O)C3)cn2)cnn1C)C1CCCC1 (racemic) [Compound 100, (+/−)-(1S,3S)-3-((2-(5-(((cyclopentyl(methyl)carbamoyl)oxy)methyl)-1-methyl-1H-pyrazol-4-yl)pyrimidin-5-yl)oxy)cyclohexane-1-carboxylic Acid] | > 200 µM | 5.00 to 6.52 | B (B: 30-50%) |
